Source: the pKa sets of Baltruschat and Czodrowski (2020)

settings: acidic group

Compared with `Cc1cc(O)nn1-c1ccccc1C(=O)[O-]`, `Cc1nc2ccccc2[nH+]c1O` is lower in pKa: 12.2 for the first, 0.48 for the second.

`CCc1cccc2ccc(O)cc12` and `[NH3+]CCc1ccc(O)cc1` are within 0.2 log units of each other in pKa: 9.54 for the first, 9.42 for the second.

Going from `C=C(C)C(=O)O` to `Cc1ccc(C(=O)C(=O)O)cc1`, the pKa falls from 4.66 to 1.52.

Compared with `N#CC(C#N)=C(C#N)NC(C#N)=C(C#N)C#N`, `N#CC(O)=C(C#N)C#N` is lower in pKa: 2.1 for the first, 1.9 for the second.

Going from `Oc1ccc(/N=N/c2ccccc2)cc1` to `Cc1cc(/N=N/c2nc3ccccc3s2)c(O)c2ncccc12`, the pKa rises from 8.44 to 9.6.

Going from `O=C(O)Cc1nnn[nH]1` to `CC(C)C[NH2+]CC(=O)O`, the pKa falls from 3.1 to 2.35.

First: CC(=S)Nc1ccc(Cl)cc1
Second: CNc1ccc(S(=O)(=O)Nc2nc(C)cs2)cc1
The pKa of the first is higher: 11.1 for the first, 6.63 for the second.

First: O=S(=O)(Cc1ccccc1)c1cnn[nH]1
Second: N#CC(CC(=O)O)Cc1ccccc1 (stereo not given)
The pKa of the first is higher: 5.15 for the first, 3.91 for the second.

`Cc1ccc(Br)c(C(=O)O)c1` and `Cc1cccc(C(=O)O)c1Br` are within 0.2 log units of each other in pKa: 3 for the first, 2.9 for the second.

Going from `O=P([O-])(O)c1cn2c([nH+]1)[C@@H](O)[C@H](O)[C@@H](O)[C@@H]2CO` to `N#Cc1ccc(O[C@H]2O[C@@H](C(=O)O)[C@H](O)[C@@H](O)[C@@H]2O)cc1`, the pKa falls from 4.84 to 3.22.

`Cc1cccc(C)c1OCC(=O)O` and `Cc1ccc([N+](=O)[O-])cc1C(=O)O` are within 0.2 log units of each other in pKa: 3.36 for the first, 3.17 for the second.

First: CC(C)CCC1=C(O)C(=O)c2ccccc2C1=O
Second: O=C1C(O)=C(/C=C/c2ccccc2)C(=O)c2ccccc21
The pKa of the first is higher: 5.13 for the first, 4.44 for the second.

Compared with `O/N=C/c1ccco1`, `O=[N+]([O-])c1ccccc1B(O)O` is lower in pKa: 10.8 for the first, 8.52 for the second.

Compared with `CCOc1ccccc1/C=C/C(=O)O`, `O=C(O)CC1[NH2+]Nc2ccccc21` (stereo not given) is lower in pKa: 4.68 for the first, 2.9 for the second.

Going from `O=C(O)[C@@H]1O[C@H](Oc2ccc3[nH+]cccc3c2)[C@@H](O)[C@H](O)[C@H]1O` to `O=C(O)C1CCc2ccccc2O1` (stereo not given), the pKa rises from 3 to 3.38.

First: C[C@H]1CC[C@H](C)C1C(=O)O
Second: O=C(O)[C@H]1C[C@H]2CC[C@@H]1C2
The pKa of the first is lower: 4.74 for the first, 5.08 for the second.

Compared with `C=CCC1(C2C=CCCC2)C(=O)[N-]C(=S)NC1=O` (stereo not given), `O=C(O)/C=C/SC1CCCCC1` is lower in pKa: 12.2 for the first, 4.7 for the second.

First: O=S(=O)([O-])c1ccc(O)cc1
Second: COc1cccc(S(N)(=O)=O)c1
The pKa of the first is lower: 8.91 for the first, 9.39 for the second.

Going from `Nc1n[nH]cc1[N+](=O)[O-]` to `Cc1ccc([Se]O)c([N+](=O)[O-])c1`, the pKa rises from 9.73 to 10.7.

Going from `Nc1cc[nH+]c2c1ncn2CCOCP(=O)([O-])O` to `O=Nc1c(O)ccc2ncsc12`, the pKa falls from 7.1 to 5.43.

First: O=C(/C=C(/[70SH])c1ccccc1)Nc1ccccc1
Second: CSC(=O)C1c2ccccc2-c2ccccc21
The pKa of the first is lower: 4.51 for the first, 10.5 for the second.

First: [NH3+]CCCCCC(=O)O
Second: O=C(O)c1cnc(Br)s1
The pKa of the first is higher: 4.37 for the first, 2.96 for the second.

First: CC1(C)OC(=O)CC(=O)O1
Second: Cc1ccc(C(C)C)cc1O
The pKa of the first is lower: 5.15 for the first, 10.3 for the second.

First: NC(=O)[C@@H](N)CSSC[C@H](N)C(N)=O
Second: NNC(=O)C(F)F
The pKa of the first is lower: 6.41 for the first, 9.66 for the second.

Going from `O=C(O)c1ccc(Cl)s1` to `C[N+](C)(C)Cc1ccccc1O`, the pKa rises from 3.41 to 8.71.

First: SCc1c[nH]cn1
Second: C[n+]1cccc2c3ccccc3[nH]c21
The pKa of the first is higher: 9.54 for the first, 7.4 for the second.

Compared with `Cc1cc(O)n(-c2nc(O)cc(C)[nH+]2)n1`, `c1ccc([P+](c2ccccc2)(c2ccccc2)C2c3ccccc3-c3ccccc32)cc1` is higher in pKa: 5.23 for the first, 8.99 for the second.

same assay, conditions: basic group

First: NCCCCCCO
Second: OCCCCCc1ccccn1
The pKa of the first is higher: 10.6 for the first, 5.93 for the second.

Going from `CCc1cccc(/N=N/c2ccc(N(C)C)cc2)c1` to `Nc1ccc(Oc2ccc(N)cc2)cc1`, the pKa rises from 2.16 to 5.18.

Going from `CCN(C)CCOCC[NH+](CC)CC` to `CCN(CC)CCOCCN(CC)CC`, the pKa rises from 8.46 to 10.1.

First: C=Cc1ccccn1
Second: [O-]c1ccccn1
The pKa of the first is lower: 4.92 for the first, 11.7 for the second.

First: CC(C)SC(=N)c1ccccc1
Second: O=C(Cc1cnccn1)c1ccccc1
The pKa of the first is higher: 8.04 for the first, 0.33 for the second.

Going from `Nc1ccc2c(c1Br)CCCC2` to `Nc1cccc(Br)c1`, the pKa rises from 3.05 to 3.41.

Going from `CCNc1cc[nH+]c([O-])n1` to `CN(C)Cc1cc(Cl)ccc1[O-]`, the pKa rises from 4.58 to 11.

Going from `COc1ccc(-c2cn3ccsc3n2)c(OC)c1` to `COc1ccc2ncccc2c1`, the pKa rises from 4.67 to 5.05.

First: O=C([O-])[C@@H]1O[C@H](Oc2cnc3ccccc3c2)[C@@H](O)[C@H](O)[C@H]1O
Second: Nc1ccc2nc3ccccc3nc2c1
The pKa of the first is lower: 3.95 for the first, 4.52 for the second.

`CN1CCCC1` and `CCN1CCCC1C` (stereo not given) are the same in pKa: 10.6 for the first, 10.6 for the second.

First: CN1CCN(C(c2ccccc2)c2ccccc2)CC1
Second: CC(=O)C(CN1CCOCC1)c1ccccc1 (stereo not given)
The pKa of the first is higher: 8.05 for the first, 6.23 for the second.

Going from `c1ccc(Nc2nccs2)cc1` to `N#Cc1cc(-c2ccccc2)nnc1NCC[NH+]1CCOCC1`, the pKa falls from 4.33 to 0.5.

Going from `OCCCNc1nc(NCCCO)nc(NCCCO)n1` to `CCCCCCCCN(CCO)CC(O)CC` (stereo not given), the pKa rises from 5.48 to 8.3.

First: NCCc1c[nH]cn1
Second: SCc1c[nH]cn1
The pKa of the first is higher: 9.87 for the first, 6.54 for the second.

Going from `COc1ccc2c(c1)C(O)N(C)C=C2` (stereo not given) to `COc1ccc(CCN)cc1OC`, the pKa rises from 2.15 to 9.87.

First: C[C@H]1[C@@H]([NH3+])[C@@H](C)[C@@H](N)[C@@H](C)[C@H]1[NH3+]
Second: CCN(CC)/N=C(\C)N
The pKa of the first is lower: 5.15 for the first, 10.6 for the second.

Going from `CCCCCCCCN(CC(O)CC)CC(O)CC` (stereo not given) to `CCCCN(CC(C)O)CC(C)O` (stereo not given), the pKa rises from 7.5 to 9.3.

Going from `Cn1cnc2c1C(=O)c1ncnc([O-])c1C2=O` to `Cn1cnc(C(=O)[O-])c1C(=O)[O-]`, the pKa rises from 6.09 to 8.

Compared with `N/N=C/c1ncnc2nc[nH]c12`, `Nc1cnc([S-])nc1N` is higher in pKa: 9.2 for the first, 10.4 for the second.

Compared with `C=C(C)C(=O)NCCN(CC)CC`, `CCN(CC)CCC#N` is lower in pKa: 9.37 for the first, 7.62 for the second.

First: CC[C@H](C(=O)[O-])[C@H](CO)Cc1cncn1C
Second: CCN(CC)CC(=O)Nc1cc(C)ccc1C
The pKa of the first is lower: 7.47 for the first, 7.92 for the second.

Going from `c1ccc(C2=NSC(N3CCOCC3)=NS2)cc1` to `C[NH+](C)CCC/N=C(\c1ccccc1)c1ccccc1-c1ccccc1`, the pKa falls from 8.33 to 4.43.

Going from `CN(C)/C=N/c1ccccc1[N+](=O)[O-]` to `NOCc1ccc([N+](=O)[O-])cc1`, the pKa falls from 5.65 to 3.96.

Going from `Cc1ccc2c(c1)NCC[NH2+]2` to `COCCNc1ccc(C)cc1`, the pKa rises from 2.03 to 4.64.

Going from `[NH3+]C(c1ncc[nH]1)c1ncc[nH]1` to `CCCc1ncc[nH]1`, the pKa rises from 4.07 to 8.02.

`c1cc([C@@H]2CCCN2)nc([C@@H]2CCCN2)c1` and `C1CNCCSCCN1` are within 0.2 log units of each other in pKa: 10.1 for the first, 10 for the second.

First: CC(C)(C)N1NC2CCC1C21CC1 (stereo not given)
Second: OC[C@@H]1CCN2CC[C@H](O)[C@H]12
The pKa of the first is lower: 9.33 for the first, 10.2 for the second.

Going from `CC(C)S(=O)(=O)n1c(N)nc2ccc(/C(=C/C(N)=O)c3cccc(F)c3)cc21` to `Nc1cccc2ccncc12`, the pKa rises from 3.41 to 6.06.

Compared with `C(CN1CCOCC1)C[NH+]1CCOCC1`, `CCCCSCCN(CC)CC` is higher in pKa: 6.25 for the first, 8.43 for the second.

First: Cc1[nH]c(C)c(C)c1C
Second: CC[NH+](CC)CCCC(C)Nc1cc(C)nc2cc(Cl)ccc12 (stereo not given)
The pKa of the first is lower: 3.77 for the first, 8.52 for the second.

First: CCN(CC)CCCC(C)Nc1cc(OC)cc2cccnc12 (stereo not given)
Second: CCOCCN(CCOCC)c1ccccc1
The pKa of the first is higher: 10.3 for the first, 4.1 for the second.

Compared with `CCOC(=O)c1ccc(CCN)cc1`, `CC(C)(C)c1ccncc1` is lower in pKa: 9.58 for the first, 5.95 for the second.

Compared with `C#CC(C)(C)N(C)C(C)(C)C`, `CSS/C(CCO)=C(/C)N(C=O)Cc1cnc(C)nc1N` is lower in pKa: 9.3 for the first, 5.59 for the second.
